Experimental findings from patent US20190262343A1, “WOUND HEALING USING BRAF INHIBITORS” (THE REGENTS OF THE UNIVERSITY OF CALIFORNIA, priority 2016, published 2019) are described below.

The subject of one experiment is dorsal skin wounds. Put plainly: Histological analysis (H&E) of incisional wounds. The experiment is classed as in vivo, mice. From the text: Dorsal skin wounds from CH3 mice treated with vemurafenib suspension or DMSO in saline control suspension were excised at day 2, 6 and 14. They were fixed in 10% neutral buffered formalin and embedded in paraffin and stained with hematoxylin and eosin (H&E) using standard methods. Balb/c mice were sacrificed at day 2, 6 and 14 with isoflurane overdose. Two 8-mm round pieces of tissue were collected from each Balbc/c mouse containing the whole wound area and the surrounding tissue and skin, cut precisely in half at the midline of the wound and fixed in 1% paraformaldehyde (PFA) for 16-18 hours at 4° C., dehydrated in 70% EtOH, and then paraffin embedded. Sections were cut at 4 μm, deparaffinized with xylene and descendant ethanol, and then incubated in 3% H2O2 for 10 minutes. After a wash in distilled water, the slides were incubated for 25 minutes in citrate buffer pH6 (Invitrogen) at 95° C. using a vegetable steamer. The slides were brought to room temperature, rinsed in PBST (Phosphate Buffered Saline containing 0.05% Tween-20), and then incubated at room temperature with 1:100 anti-mouse Ki-67 antibody (DAKO, Carpinteria, Calif.) for 1 hour and 1:10 phospho-ERK Ab (Cell Signaling), overnight. The Ki67 stained slides were rinsed with PBST and incubated at room temperature with 1:200 polyclonal Rabbit anti-rat immunoglobulin/Biotinylated Ab (Dako, E0468) for 30 minutes. All the slides were rinsed with PBST, and incubated with Dako EnVision+ System-HRP Labelled Polymer Anti-Rabbit (Dako) at room temperature for 30 minutes. After a rinse with PBST, the slides were incubated with DAB (3,3′-Diaminobenzidine) for visualization. Subsequently, the slides were washed in tap water, counterstained with Harris' Hematoxylin, dehydrated in ethanol, and mounted with media. The imaging and quantification of the cell-based immunohistochemistry, was performed with the HALO Next Generation Imaging analysis software (Indica Labs; Corrales, N. Mex.). HALO measures and reports individual cell data maintaining an interactive link between cell metrics and cell imagery. The number of pERK+, Ki67+ and PECAM-1+ cells was automatically counted with the HALO software. Three 20× fields of view from each side of the wound were automatically counted for pERK and Ki67 stains. PECAM-1+ and CD68+ cells were automatically counted on each side of the wound edges where the granulation tissue starts (1 mm length each side) on the excisional wound splinting model, and in the entire wound area on the incisional wound model.
The area of the wounds and their surroundings were analyzed histologically by two pathologists blinded to the study groups.
The area of the wounds and their surroundings were analyzed histologically by H&E staining by two pathologists and the extent of epidermal hyperplasia on both sides of the healing wounds was measured on days 1, 2 and 6 post-treatment (FIGS. 6A and 6B).

Experiment [1] deals with pERK and Ki67 in BRAF^V600E mutant human melanoma cell line M249. Description: pERK and Ki67 by western blot and phosphoflow cytometry, M249. The experiment is classed as cell-based. The note with it: 1.5 μM vemurafenib vs vehicle. Background: In western blotting, separated proteins are transferred to a membrane and probed.
Method: HEKa and M249 cells treated with a concentration of 1.5 μM of vemurafenib or vehicle control were fixed with formaldehyde to a final concentration of 1.6%, and permeabilized using methanol (90%). Then, they were washed in staining buffer (sterile PBS, 0.5% BSA, 0.01% sodium azide, NaN3), and stained with Alexa Flour 647 mouse anti-ERK1/2 (pT202/pY204) antibody and PE mouse anti-human Ki67 antibody (BD Pharmingen, San Jose, Calif.) as previously described by Comin-Anduix, et al., PLoS One 5:e12711 (2010). After incubation, cells were washed again and resuspended in 3 ml of staining buffer. A total of 30,000 cellular events were acquired for analysis. Data was analyzed using FlowJo (Tree Star Inc., Ashland, Oreg.).
M249 and HEKa cells were treated in duplicate with a concentration of 1.5 μM of vemurafenib or vehicle control.
Experiment [2] concerns Human epidermal adult keratinocytes (HEKa). Put plainly: Scratch assay of keratinocyte monolayer (cell proliferation and migration, automated microscope). It is filed as cell-based. The note with it: 1.5 μM vemurafenib vs no vemurafenib, evident at 6, 8 and 12 hours. As to the method:
Human epidermal adult keratinocytes (HEKa) were purchased from Invitrogen (Grand Island, N.Y.; C-005-5C). HEKa cells (25,000/well) were plated on 96-well ImageLock cell migration plates (Essen Bioscience, Ann Arbor, Mich.) and incubated overnight. Then, the cell monolayer was scratched with a 96-pin WoundMaker (Essen Bioscience), and the cells washed with PBS prior to adding cell medium. Cells were maintained in culture with a concentration of 1.5 μM of vemurafenib until complete scratch closure. Cell migration was monitored by a microscope gantry inside a cell incubator, which was connected to a networker external controller hard drive that gathered and processed image data (Incucyte, Essen Bioscience, Ann Arbor, Mich.). This allows an automated and non-invasive method of monitoring live cells in culture. […]
Human epithelial adult keratinocytes (HEKa) cultured as a monolayer in 96-well plates were subject to a scratch assay, where proliferating keratinocytes should regrow and cover the scratch. Replicate cultures with or without the BRAF inhibitor vemurafenib were placed in an incubator with an automated microscope analyzer and the number of nucleated cells in the original scratch was recorded over time. […]

For experiment [3], the system named is BRAF^V600E mutant melanoma line M249. Description: Soft agar colony forming assay, M249. As to conditions: 1.5 μM vemurafenib, one week. The experiment is classed as cell-based, human.
Method: Twenty four-well plates were covered with 300 μl of serum-free RPMI 1640 (Fisher Scientific, Hampton, N.H.) with 0.6% Noble agar (BD Biosciences, San Jose, Calif.), and incubated at 37° C. overnight, until solid. 300 μl of a suspension of HEKa and M249 cells (15,000 cells/ml) in a 1:1 mixture of growth medium with a concentration of 1.5 μM of vemurafenib and growth factor-reduced matrigel (BD Biosciences) was added to each well. After one week, automated colony quantification was performed using a BioSpot Series 5 UV analyzer.

As to `CCCS(=O)(=O)Nc1ccc(F)c(C(=O)c2c[nH]c3ncc(-c4ccc(Cl)cc4)cc23)c1F` [vemurafenib], the “wound-adjacent / peri-lesional epidermal hyperplasia (FIG. 6A)” value in the experiment on dorsal skin wounds (2 days post-incision) is listed as “more extensive”. Besides, the surface integrity entry in the experiment with dorsal skin wounds (by day 6) is on record as “surface integrity was re-established”. Further, the wounds completely re-epithelialized in the experiment on dorsal skin wounds (by day 6, control wounds 79%) came out at 100%. Moreover, the “distance of epidermal hyperplasia” value in the experiment with dorsal skin wounds (day 1 and 2, p=0.0132 and p=0.0338) was “epidermal hyperplasia over a greater distance”. The wound-adjacent epidermal inflammation result in the experiment with dorsal skin wounds (day 1 post-incision) is “more extensive”. Also, in the experiment with dorsal skin wounds (day 6), the “repair / re-epithelialization (FIG. 6A)” value is on record as “Skin surface integrity re-established in 6 days”. Besides, in the experiment with dorsal skin wounds (day 6, p=0.0012), the epidermal hyperplasia result is listed as “less epidermal hyperplasia”. Moreover, the “healing process (FIG. 6A)” value with dorsal skin wounds (days 1, 2 and 6) was “accelerated”. Further, the onset of re-epithelialization result with dorsal skin wounds (incisional wounds) was “strong and rapid re-epithelialization starting at day 2”. Moreover, in the experiment with dorsal skin wounds (incisional wounds, blinded pathologists), the “proliferative stage of wound healing (extent of epidermal hyperplasia)” value is given as “accelerated proliferative stage of wound healing”. Moreover, in experiment [1], the “pERK in M249” value was “decreased pERK” and the “proliferative marker Ki67 in M249” value is “decreased”. The “covering of the original scratch” value in experiment [2] was “statistically significant improvement in the covering of the original scratch”. Also, the “M249 colonies in soft agar” value in experiment [3] is recorded as “decrease in colonies”.
